Assay results: EP0207497A2, “Quinolonecarboxylic acid derivative and process for its preparation” (KYORIN PHARMACEUTICAL CO., LTD., priority 1985, dated 1987)
Like-named read-outs stand apart in the source and are kept apart here.

Experiments:
Type in all cases: cell-based
[1] = test system: Escherichia coli NIHJ JC-2; experiment: Antibacterial spectrum, MIC determination (method of Japan Society of Chemotherapy); details: NIHJJC2; Escherichia coli NIHJ JC-2, Gram -, 10^6 cells/ml
[2] = test system: S. aureus IID 670 (Terajima); experiment: as above; details: Staphylococcus aureus, IID670
[3] = test system: Peptococcus magnus KY 017; experiment: as above; details: Finegoldia magna, KY017
[4] = test system: C. perfringens KYA 13123; experiment: microbe, parasite or virus in culture; details: Clostridium perfringens, KYA13123
[5] = test system: Klebsiella pneumoniae KY(GN)6445; experiment: Antibacterial spectrum, MIC determination (method of Japan Society of Chemotherapy)
[6] = test system: Proteus vulgaris IFO 3167; experiment: as above; details: IFO3167
[7] = test system: Alcaligenes faecalis 0114002; experiment: as above; details: Alcaligenes faecalis 0114002, Gram -, 10^6 cells/ml
[8] = test system: B. thetaiotaomicron (0661); experiment: as above; details: Bacteroides thetaiotaomicron
[9] = test system: Morganella morganii IID 602; experiment: as above; details: IID602; Morganella morganii IID 602, Gram -, 10^6 cells/ml
[10] = test system: Bacillus subtilis PCI 219; experiment: as above; details: PCI219
[11] = test system: B. fragilis 0558; experiment: as above; details: Bacteroides fragilis
[12] = test system: Salmonella enteritidis IID 604; experiment: as above; details: Salmonella enterica
[13] = test system: P. cepacia GIFU 518; experiment: as above; details: Burkholderia cepacia, GIFU518
[14] = test system: S. epidermidis IID 866; experiment: as above; details: Staphylococcus epidermidis, IID866
[15] = test system: Serratia marcescens IID 618; experiment: as above; details: IID618
[16] = test system: S. aureus Smith; experiment: as above; details: Staphylococcus aureus
[17] = test system: Acinetobacter anitratus IID 876; experiment: as above; details: Acinetobacter calcoaceticus, IID876
[18] = test system: Pst. micros UPI 5464-1; experiment: as above; details: Parvimonas micra, UPI54641; Pst. micros UPI 5464-1, Gram +, 10^6 cells/ml
[19] = test system: Citrobacter freundii IID 976; experiment: as above; details: IID976
[20] = test system: Shigella sonnei IID 969; experiment: as above; details: IID969; Shigella sonnei IID 969, Gram -, 10^6 cells/ml
Method: Minimal inhibitory concentrations (MICs) were determined in accordance with the method recommended by Japan Society of Chemotherapy.

[21] = test system: P. maltophilia GIFU 2491; experiment: as above; details: Stenotrophomonas maltophilia, GIFU2491
[22] = test system: B. fragilis 25285; experiment: as above; details: Bacteroides fragilis
[23] = test system: B. distasonis 8503; experiment: as above; details: Parabacteroides distasonis
[24] = test system: Bacteroides fragilis GM 7000; experiment: as above; details: GM7000
[25] = test system: Fusobacterium mortiferum 4249; experiment: as above
[26] = test system: E. coli ML 4707; experiment: as above; details: Escherichia coli, ML4707
[27] = test system: C. ramosum; experiment: as above; details: Thomasclavelia ramosa
[28] = test system: Yersinia enterocolitica IID 981; experiment: as above; details: IID981
[29] = test system: Staphylococcus aureus 209 P; experiment: as above
[30] = test system: Veillonella parvula KYA 10790; experiment: as above; details: KYA10790; Veillonella parvula KYA 10790, Gram -, 10^6 cells/ml
[31] = test system: Peptostreptococcus anaerobius KYA 27337; experiment: as above; details: KYA27337
[32] = test system: K. pneumoniae 1-220S; experiment: as above; details: Klebsiella pneumoniae, 1220S
[33] = test system: Propionibacterium acens 11828; experiment: as above
[34] = test system: P. mirabilis IID 994; experiment: as above; details: Proteus mirabilis, IID994
[35] = test system: E. coli ATCC 10536; experiment: as above; details: Escherichia coli, ATCC10536
[36] = test system: B. vulgatus KYA 29327; experiment: as above; details: Phocaeicola vulgatus, KYA29327
[37] = test system: Streptococcus pyogenes (S-8); experiment: as above
[38] = test system: P. aeruginosa IFO 12689; experiment: as above; details: Pseudomonas aeruginosa, IFO12689; P. aeruginosa IFO 12689, Gram -, 10^6 cells/ml
[39] = test system: F. varium KYA 8501; experiment: as above; details: Fusobacterium varium, KYA8501; F. varium KYA 8501, Gram -, 10^6 cells/ml
[40] = test system: P. aeruginosa IID 1210; experiment: as above; details: Pseudomonas aeruginosa, IID1210; P. aeruginosa IID 1210, Gram -, 10^6 cells/ml
[41] = test system: Eubacterium lentum GAI 5242; experiment: as above; details: Eggerthella lenta, GAI5242; Eubacterium lentum GAI 5242, Gram +, 10^6 cells/ml
[42] = test system: S. pneumoniae IID 552; experiment: as above; details: Streptococcus pneumoniae, IID552; S. pneumoniae IID 552, Gram +, 10^6 cells/ml
[43] = test system: F. necrophorum S-45; experiment: as above; details: Fusobacterium necrophorum, S45; F. necrophorum S-45, Gram -, 10^6 cells/ml
[44] = test system: Clostridium difficile I-E; experiment: as above; details: Clostridioides difficile, Gram +, 10^6 cells/ml
[45] = test system: Pseudomonas aeruginosa V-1; experiment: as above; details: V1; Pseudomonas aeruginosa V-1, Gram -, 10^6 cells/ml
[46] = test system: S. pyogenes IID 692; experiment: as above; details: Streptococcus pyogenes, IID692; S. pyogenes IID 692, Gram +, 10^6 cells/ml
[47] = test system: E. faecalis IID 682; experiment: as above; details: Enterococcus faecalis, IID682; E. faecalis IID 682, Gram +, 10^6 cells/ml
[48] = test system: Enterobacter cloacae IID 977; experiment: as above; details: IID977; Enterobacter cloacae IID 977, Gram -, 10^6 cells/ml

Measured: MIC

O=C(O)c1cn(C2CC2)c2cc(N3CCNCC3)c(F)cc2c1=O [CPFX, ciprofloxacin, reference compound]
0.025 µg/mL: [9] | [12] | [15]; Serratia marcescens | [28]; Yersinia enterocolitica | [32]
6.25 µg/mL: [23]; 8503 | [24]; Bacteroides fragilis
0.05 µg/mL: [10]; Bacillus subtilis
3.13 µg/mL: [11]; 0558 | [22]; 25285
1.56 µg/mL: [25]; Fusobacterium mortiferum, 4249 | [31]; Peptostreptococcus anaerobius
0.0063 µg/mL: [1] | [19]; Citrobacter freundii | [20]
0.2 µg/mL: [2] | [14] | [18] | [29]; Staphylococcus aureus, 209P | [30]
> 12.5 µg/mL: [8] | [36]
12.5 µg/mL: [27] | [33]; Propionibacterium, 11828
0.0125 µg/mL: [5]; Klebsiella pneumoniae | [6]; Proteus vulgaris | [26] | [34] | [35]
0.39 µg/mL: [3] | [4] | [7] | [13] | [16] | [21] | [37]; Streptococcus pyogenes
0.1 µg/mL: [17]

NC1CCN(c2c(F)cc3c(=O)c(C(=O)O)cn(C4CC4)c3c2Br)C1 (stereo not shown) [Exp. 1, 7-(3-Amino-1-pyrrolidinyl)-8-bromo-1-cyclopropyl-6-fluoro-1,4-dihydro-4-oxo-3-quinolinecarboxylic acid]
1.56 µg/mL: [27]; C. ramosum, Gram +, 10^6 cells/ml, read-out: MIC | [33]; Propionibacterium acens 11828, Gram +, 10^6 cells/ml, read-out: MIC
0.05 µg/mL: [2]; S. aureus IID 670 (Terajima), Gram +, 10^6 cells/ml, read-out: MIC | [9] | [15]; Serratia marcescens IID 618, Gram -, 10^6 cells/ml, read-out: MIC | [16]; S. aureus Smith, Gram +, 10^6 cells/ml, read-out: MIC | [17]; Acinetobacter anitratus IID 876, Gram -, 10^6 cells/ml, read-out: MIC | [21]; P. maltophilia GIFU 2491, Gram -, 10^6 cells/ml, read-out: MIC | [29]; Staphylococcus aureus 209 P, Gram +, 10^6 cells/ml, read-out: MIC
0.0125 µg/mL: [5]; Klebsiella pneumoniae KY(GN)6445, Gram -, 10^6 cells/ml, read-out: MIC | [6]; Proteus vulgaris IFO 3167, Gram -, 10^6 cells/ml, read-out: MIC | [26]; E. coli ML 4707, Gram -, 10^6 cells/ml, read-out: MIC | [34]; P. mirabilis IID 994, Gram -, 10^6 cells/ml, read-out: MIC | [35]; E. coli ATCC 10536, Gram -, 10^6 cells/ml, read-out: MIC
0.78 µg/mL: [39] | [40] | [44]
0.0063 µg/mL: [1] | [20]
0.2 µg/mL: [4] | [8]; B. thetaiotaomicron (0661), Gram -, 10^6 cells/ml, read-out: MIC | [43] | [45] | [25]; Fusobacterium mortiferum 4249, Gram -, 10^6 cells/ml, read-out: MIC | [31]; Peptostreptococcus anaerobius KYA 27337, Gram +, 10^6 cells/ml, read-out: MIC | [46] | [36]; B. vulgatus KYA 29327, Gram -, 10^6 cells/ml, read-out: MIC
0.39 µg/mL: [38] | [13]; P. cepacia GIFU 518, Gram -, 10^6 cells/ml, read-out: MIC | [23]; B. distasonis 8503, Gram -, 10^6 cells/ml, read-out: MIC
0.025 µg/mL: [10]; Bacillus subtilis PCI 219, Gram +, 10^6 cells/ml, read-out: MIC | [12]; Salmonella enteritidis IID 604, Gram -, 10^6 cells/ml, read-out: MIC | [19]; Citrobacter freundii IID 976, Gram -, 10^6 cells/ml, read-out: MIC | [28]; Yersinia enterocolitica IID 981, Gram -, 10^6 cells/ml, read-out: MIC | [32]; K. pneumoniae 1-220S, Gram -, 10^6 cells/ml, read-out: MIC | [48]
0.1 µg/mL: [3]; Peptococcus magnus KY 017, Gram +, 10^6 cells/ml, read-out: MIC | [7] | [11]; B. fragilis 0558, Gram -, 10^6 cells/ml, read-out: MIC | [41] | [42] | [14]; S. epidermidis IID 866, Gram +, 10^6 cells/ml, read-out: MIC | [18] | [22]; B. fragilis 25285, Gram -, 10^6 cells/ml, read-out: MIC | [24]; Bacteroides fragilis GM 7000, Gram -, 10^6 cells/ml, read-out: MIC | [30] | [47] | [37]; Streptococcus pyogenes (S-8), Gram +, 10^6 cells/ml, read-out: MIC
